{"source": "the kinase profiling compilation of Christmann-Franck et al. (2016)", "test_in_all_cases": "radiometric filter-binding kinase assay", "key": {"PIM2 (human)": {"biological_target": "PIM2 (human) (UniProt Q9P1W9)", "sequence (Q9P1W9 whole entry, looked up)": "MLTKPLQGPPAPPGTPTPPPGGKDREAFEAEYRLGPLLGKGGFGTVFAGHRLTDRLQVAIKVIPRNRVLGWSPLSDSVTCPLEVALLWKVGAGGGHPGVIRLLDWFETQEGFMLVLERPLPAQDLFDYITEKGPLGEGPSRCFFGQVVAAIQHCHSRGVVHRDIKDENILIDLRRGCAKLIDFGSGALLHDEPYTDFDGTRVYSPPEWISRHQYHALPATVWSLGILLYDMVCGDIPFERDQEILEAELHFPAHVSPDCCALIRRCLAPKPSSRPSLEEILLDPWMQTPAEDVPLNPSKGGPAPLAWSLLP"}, "CHEK1 (human)": {"biological_target": "CHEK1 (human) (UniProt O14757)"}, "MAP2K2 (human)": {"biological_target": "MAP2K2 (human) (UniProt P36507)", "settings": "compound 1.0 µM"}, "MAP3K9 (human)": {"biological_target": "MAP3K9 (human) (UniProt P80192)"}, "MAPKAPK2 (human)": {"biological_target": "MAPKAPK2 (human) (UniProt P49137)"}, "EPHB4 (human)": {"biological_target": "EPHB4 (human) (UniProt P54760)"}, "YES1 (human)": {"biological_target": "YES1 (human) (UniProt P07947)"}, "RPS6KA5 KD1 KD2 (human)": {"biological_target": "RPS6KA5 KD1 KD2 (human) (UniProt O75582)"}, "INSRR (human)": {"biological_target": "INSRR (human) (UniProt P14616)"}, "[1]": {"tested_on": "PAK2 (human), Q13177 [T402E]"}, "SRPK1 (human)": {"biological_target": "SRPK1 (human) (UniProt Q96SB4)", "sequence (Q96SB4 whole entry, looked up)": "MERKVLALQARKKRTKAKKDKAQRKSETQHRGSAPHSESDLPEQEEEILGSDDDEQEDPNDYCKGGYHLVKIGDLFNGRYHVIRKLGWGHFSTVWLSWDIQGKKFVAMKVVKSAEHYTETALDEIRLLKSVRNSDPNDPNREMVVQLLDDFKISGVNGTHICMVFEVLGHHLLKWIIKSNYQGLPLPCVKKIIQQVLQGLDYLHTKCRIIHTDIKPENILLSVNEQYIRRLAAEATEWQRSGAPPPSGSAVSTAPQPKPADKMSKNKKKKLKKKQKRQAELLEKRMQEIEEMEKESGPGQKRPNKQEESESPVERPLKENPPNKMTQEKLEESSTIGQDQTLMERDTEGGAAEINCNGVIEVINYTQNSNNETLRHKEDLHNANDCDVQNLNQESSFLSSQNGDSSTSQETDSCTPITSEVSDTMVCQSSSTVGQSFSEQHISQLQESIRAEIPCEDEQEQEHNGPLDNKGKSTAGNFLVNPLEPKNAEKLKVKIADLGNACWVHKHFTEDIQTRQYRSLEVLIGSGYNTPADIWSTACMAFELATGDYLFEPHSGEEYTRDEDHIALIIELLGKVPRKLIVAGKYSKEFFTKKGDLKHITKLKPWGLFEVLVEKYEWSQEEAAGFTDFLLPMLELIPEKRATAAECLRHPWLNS"}, "MKNK2 (human)": {"biological_target": "MKNK2 (human) (UniProt Q9HBH9)"}, "EPHA4 (human)": {"biological_target": "EPHA4 (human) (UniProt P54764)"}, "PAK6 (human)": {"biological_target": "PAK6 (human) (UniProt Q9NQU5)"}, "CDK2 CCNA2 (human)": {"biological_target": "CDK2 CCNA2 (human) (UniProt P20248+P24941)"}, "TBK1 (human)": {"biological_target": "TBK1 (human) (UniProt Q9UHD2)"}, "IKBKB (human)": {"biological_target": "IKBKB (human) (UniProt O14920)", "sequence (O14920 whole entry, looked up)": "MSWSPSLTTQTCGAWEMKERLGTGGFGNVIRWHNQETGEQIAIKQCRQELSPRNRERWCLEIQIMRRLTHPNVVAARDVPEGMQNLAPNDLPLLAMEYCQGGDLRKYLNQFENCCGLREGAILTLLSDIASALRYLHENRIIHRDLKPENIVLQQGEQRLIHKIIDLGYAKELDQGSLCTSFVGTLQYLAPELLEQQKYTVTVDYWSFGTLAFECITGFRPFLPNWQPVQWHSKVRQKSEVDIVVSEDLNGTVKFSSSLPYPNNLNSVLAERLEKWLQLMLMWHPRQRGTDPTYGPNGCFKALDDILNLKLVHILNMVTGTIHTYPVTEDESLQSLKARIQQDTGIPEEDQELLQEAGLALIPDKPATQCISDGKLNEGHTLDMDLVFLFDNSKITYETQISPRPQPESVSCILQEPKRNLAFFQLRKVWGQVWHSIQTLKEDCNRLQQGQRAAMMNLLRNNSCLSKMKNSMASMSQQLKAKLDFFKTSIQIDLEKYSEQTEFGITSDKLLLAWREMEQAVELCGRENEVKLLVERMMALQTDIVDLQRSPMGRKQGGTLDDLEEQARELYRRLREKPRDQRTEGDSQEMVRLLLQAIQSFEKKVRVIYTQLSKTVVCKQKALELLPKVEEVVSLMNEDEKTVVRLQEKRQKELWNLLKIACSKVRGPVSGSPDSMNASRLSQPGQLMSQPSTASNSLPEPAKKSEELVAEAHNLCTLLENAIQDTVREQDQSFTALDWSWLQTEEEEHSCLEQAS"}, "GCK (human)": {"biological_target": "GCK (human) (UniProt Q12851)"}, "NEK6 (human)": {"biological_target": "NEK6 (human) (UniProt Q9HC98)"}, "MARK3 (human)": {"biological_target": "MARK3 (human) (UniProt P27448)"}, "MAPK9 (human)": {"biological_target": "MAPK9 (human) (UniProt P45984)", "sequence (P45984 whole entry, looked up)": "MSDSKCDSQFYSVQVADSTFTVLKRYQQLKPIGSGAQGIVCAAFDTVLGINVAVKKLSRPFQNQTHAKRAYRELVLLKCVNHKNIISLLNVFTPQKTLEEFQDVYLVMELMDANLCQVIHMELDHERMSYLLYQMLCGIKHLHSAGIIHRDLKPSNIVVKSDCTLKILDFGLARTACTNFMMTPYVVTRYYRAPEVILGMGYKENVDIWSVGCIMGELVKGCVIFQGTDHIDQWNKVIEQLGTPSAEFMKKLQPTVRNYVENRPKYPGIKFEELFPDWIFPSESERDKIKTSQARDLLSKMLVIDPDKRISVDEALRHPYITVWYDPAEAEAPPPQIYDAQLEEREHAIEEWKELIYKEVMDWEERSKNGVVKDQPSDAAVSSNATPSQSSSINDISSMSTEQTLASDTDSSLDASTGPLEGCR"}, "TTK (human)": {"biological_target": "TTK (human) (UniProt P33981)"}, "PKN2 (human)": {"biological_target": "PKN2 (human) (UniProt Q16513)"}, "[2]": {"tested_on": "RPS6KB1 (human), P23443 [T412E]"}, "DAPK1 (human)": {"biological_target": "DAPK1 (human) (UniProt P53355)", "settings": "compound 1.0 µM"}, "MARK4 (human)": {"biological_target": "MARK4 (human) (UniProt Q96L34)"}, "PIM1 (human)": {"biological_target": "PIM1 (human) (UniProt P11309)", "sequence (P11309 whole entry, looked up)": "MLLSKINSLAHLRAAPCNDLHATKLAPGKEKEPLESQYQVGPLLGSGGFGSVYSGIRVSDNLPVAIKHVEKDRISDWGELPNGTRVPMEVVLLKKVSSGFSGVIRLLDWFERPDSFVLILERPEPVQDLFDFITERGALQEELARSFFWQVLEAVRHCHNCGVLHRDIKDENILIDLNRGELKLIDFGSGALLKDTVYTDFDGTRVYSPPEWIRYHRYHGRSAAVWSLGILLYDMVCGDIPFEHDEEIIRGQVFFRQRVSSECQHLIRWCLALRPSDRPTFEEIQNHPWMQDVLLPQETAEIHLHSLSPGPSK"}, "CSNK2A1 (human)": {"biological_target": "CSNK2A1 (human) (UniProt P68400)"}, "BTK (human)": {"biological_target": "BTK (human) (UniProt Q06187)", "sequence (Q06187 whole entry, looked up)": "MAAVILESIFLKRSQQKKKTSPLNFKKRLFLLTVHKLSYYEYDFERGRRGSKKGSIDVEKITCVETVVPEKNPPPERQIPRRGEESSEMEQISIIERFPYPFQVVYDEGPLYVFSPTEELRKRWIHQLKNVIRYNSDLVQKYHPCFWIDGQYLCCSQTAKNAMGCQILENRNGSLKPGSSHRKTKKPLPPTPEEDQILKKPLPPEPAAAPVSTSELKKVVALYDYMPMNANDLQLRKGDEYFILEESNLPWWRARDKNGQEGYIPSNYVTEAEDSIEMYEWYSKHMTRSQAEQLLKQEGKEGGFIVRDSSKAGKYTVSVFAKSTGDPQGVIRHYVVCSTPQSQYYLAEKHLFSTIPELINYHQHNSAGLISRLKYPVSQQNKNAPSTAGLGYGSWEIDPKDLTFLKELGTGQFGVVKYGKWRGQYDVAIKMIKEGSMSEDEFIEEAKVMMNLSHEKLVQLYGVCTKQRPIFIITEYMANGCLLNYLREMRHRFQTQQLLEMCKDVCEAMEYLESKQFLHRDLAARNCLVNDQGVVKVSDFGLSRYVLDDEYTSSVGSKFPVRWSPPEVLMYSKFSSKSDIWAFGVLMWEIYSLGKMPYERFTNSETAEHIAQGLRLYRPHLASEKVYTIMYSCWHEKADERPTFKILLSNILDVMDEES"}, "EPHB1 (human)": {"biological_target": "EPHB1 (human) (UniProt P54762)", "settings": "compound 1.0 µM"}, "STK3 (human)": {"biological_target": "STK3 (human) (UniProt Q13188)"}, "EEF2K (human)": {"biological_target": "EEF2K (human) (UniProt O00418)"}, "MAP2K1 (human)": {"biological_target": "MAP2K1 (human) (UniProt Q02750)"}, "MYLK (human)": {"biological_target": "MYLK (human) (UniProt Q15746)", "sequence (Q15746 whole entry, looked up)": "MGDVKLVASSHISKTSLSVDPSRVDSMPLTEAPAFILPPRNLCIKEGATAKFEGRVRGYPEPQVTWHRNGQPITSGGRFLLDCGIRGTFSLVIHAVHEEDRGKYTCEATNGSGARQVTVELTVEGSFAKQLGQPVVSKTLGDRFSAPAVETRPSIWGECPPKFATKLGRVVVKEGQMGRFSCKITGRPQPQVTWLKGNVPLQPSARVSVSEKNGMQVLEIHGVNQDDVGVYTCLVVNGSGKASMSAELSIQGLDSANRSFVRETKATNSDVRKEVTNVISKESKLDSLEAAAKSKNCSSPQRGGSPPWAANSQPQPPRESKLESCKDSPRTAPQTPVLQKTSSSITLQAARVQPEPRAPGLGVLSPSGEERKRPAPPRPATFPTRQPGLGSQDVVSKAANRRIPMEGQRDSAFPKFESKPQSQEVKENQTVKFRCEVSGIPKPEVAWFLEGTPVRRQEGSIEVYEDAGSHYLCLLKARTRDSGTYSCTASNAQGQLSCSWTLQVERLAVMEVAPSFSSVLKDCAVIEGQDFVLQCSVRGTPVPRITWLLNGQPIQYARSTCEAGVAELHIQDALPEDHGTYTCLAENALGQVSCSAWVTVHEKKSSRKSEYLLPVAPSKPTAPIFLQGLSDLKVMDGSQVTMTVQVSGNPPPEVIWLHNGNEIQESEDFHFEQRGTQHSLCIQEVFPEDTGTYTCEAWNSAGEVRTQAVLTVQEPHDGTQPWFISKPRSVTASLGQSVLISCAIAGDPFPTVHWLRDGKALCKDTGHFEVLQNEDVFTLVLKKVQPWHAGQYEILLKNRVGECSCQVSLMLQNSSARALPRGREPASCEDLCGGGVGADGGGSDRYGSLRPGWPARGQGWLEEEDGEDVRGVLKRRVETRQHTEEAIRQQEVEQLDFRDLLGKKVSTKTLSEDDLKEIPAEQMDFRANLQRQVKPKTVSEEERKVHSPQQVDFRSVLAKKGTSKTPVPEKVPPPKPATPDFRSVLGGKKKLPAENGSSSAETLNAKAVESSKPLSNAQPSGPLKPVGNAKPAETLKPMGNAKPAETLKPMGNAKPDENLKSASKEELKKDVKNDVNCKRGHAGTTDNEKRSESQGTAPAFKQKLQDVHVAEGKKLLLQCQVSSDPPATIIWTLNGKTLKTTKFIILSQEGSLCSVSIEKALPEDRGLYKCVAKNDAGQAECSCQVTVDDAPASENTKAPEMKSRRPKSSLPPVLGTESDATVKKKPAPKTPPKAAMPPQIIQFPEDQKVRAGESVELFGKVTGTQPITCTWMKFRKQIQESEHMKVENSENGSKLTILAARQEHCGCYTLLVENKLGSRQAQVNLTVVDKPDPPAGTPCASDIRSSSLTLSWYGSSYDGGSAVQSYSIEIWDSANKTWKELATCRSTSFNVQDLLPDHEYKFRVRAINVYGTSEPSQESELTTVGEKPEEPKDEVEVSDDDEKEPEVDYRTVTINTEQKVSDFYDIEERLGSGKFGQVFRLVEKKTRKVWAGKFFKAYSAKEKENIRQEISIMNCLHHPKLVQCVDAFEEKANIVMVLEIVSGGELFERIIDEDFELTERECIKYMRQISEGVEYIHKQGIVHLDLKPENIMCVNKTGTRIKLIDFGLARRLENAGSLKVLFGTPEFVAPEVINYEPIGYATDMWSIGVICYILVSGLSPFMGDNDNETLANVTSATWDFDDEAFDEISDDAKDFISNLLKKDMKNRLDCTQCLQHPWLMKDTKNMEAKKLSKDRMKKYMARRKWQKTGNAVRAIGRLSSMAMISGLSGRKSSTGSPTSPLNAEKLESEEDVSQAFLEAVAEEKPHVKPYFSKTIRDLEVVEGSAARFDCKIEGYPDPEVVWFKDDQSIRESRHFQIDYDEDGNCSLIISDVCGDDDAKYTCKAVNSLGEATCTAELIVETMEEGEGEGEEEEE"}, "MAP3K5 (human)": {"biological_target": "MAP3K5 (human) (UniProt Q99683)", "settings": "compound 1.0 µM"}, "PIM3 (human)": {"biological_target": "PIM3 (human) (UniProt Q86V86)"}}}
{"smiles": "O=c1c(O)c(-c2ccc(O)c(O)c2)oc2cc(O)c(O)c(O)c12", "values": [{"measurement": "residual activity", "setting": "PIM2 (human); compound 1.0 µM", "result": 74, "unit": "%"}, {"measurement": "residual activity", "setting": "PIM2 (human); compound 10.0 µM", "result": 11, "unit": "%"}, {"measurement": "residual activity", "setting": "CHEK1 (human); compound 1.0 µM", "result": 92, "unit": "%"}, {"measurement": "residual activity", "setting": "CHEK1 (human); compound 10.0 µM", "result": 32, "unit": "%"}, {"measurement": "residual activity", "setting": "MAP2K2 (human)", "result": 94, "unit": "%"}, {"measurement": "residual activity", "setting": "MAP3K9 (human); compound 1.0 µM", "result": 100, "unit": "%"}, {"measurement": "residual activity", "setting": "MAP3K9 (human); compound 10.0 µM", "result": 24, "unit": "%"}, {"measurement": "residual activity", "setting": "MAPKAPK2 (human); compound 1.0 µM", "result": 94, "unit": "%"}, {"measurement": "residual activity", "setting": "MAPKAPK2 (human); compound 10.0 µM", "result": 53, "unit": "%"}, {"measurement": "residual activity", "setting": "EPHB4 (human); compound 1.0 µM", "result": 90, "unit": "%"}, {"measurement": "residual activity", "setting": "EPHB4 (human); compound 10.0 µM", "result": 56, "unit": "%"}, {"measurement": "residual activity", "setting": "YES1 (human); compound 1.0 µM", "result": 42, "unit": "%"}, {"measurement": "residual activity", "setting": "YES1 (human); compound 10.0 µM", "result": 9, "unit": "%"}, {"measurement": "residual activity", "setting": "RPS6KA5 KD1 KD2 (human); compound 1.0 µM", "result": 88, "unit": "%"}, {"measurement": "residual activity", "setting": "RPS6KA5 KD1 KD2 (human); compound 10.0 µM", "result": 38, "unit": "%"}, {"measurement": "residual activity", "setting": "INSRR (human); compound 1.0 µM", "result": 76, "unit": "%"}, {"measurement": "residual activity", "setting": "INSRR (human); compound 10.0 µM", "result": 21, "unit": "%"}, {"measurement": "residual activity", "setting": "[1]; compound 1.0 µM", "result": 96, "unit": "%"}, {"measurement": "residual activity", "setting": "[1]; compound 10.0 µM", "result": 98, "unit": "%"}, {"measurement": "residual activity", "setting": "SRPK1 (human); compound 1.0 µM", "result": 55, "unit": "%"}, {"measurement": "residual activity", "setting": "SRPK1 (human); compound 10.0 µM", "result": 3, "unit": "%"}, {"measurement": "residual activity", "setting": "MKNK2 (human); compound 1.0 µM", "result": 63, "unit": "%"}, {"measurement": "residual activity", "setting": "MKNK2 (human); compound 10.0 µM", "result": 26, "unit": "%"}, {"measurement": "residual activity", "setting": "EPHA4 (human); compound 1.0 µM", "result": 117, "unit": "%"}, {"measurement": "residual activity", "setting": "EPHA4 (human); compound 10.0 µM", "result": 74, "unit": "%"}, {"measurement": "residual activity", "setting": "PAK6 (human); compound 1.0 µM", "result": 58, "unit": "%"}, {"measurement": "residual activity", "setting": "PAK6 (human); compound 10.0 µM", "result": 60, "unit": "%"}, {"measurement": "residual activity", "setting": "CDK2 CCNA2 (human); compound 1.0 µM", "result": 89, "unit": "%"}, {"measurement": "residual activity", "setting": "CDK2 CCNA2 (human); compound 10.0 µM", "result": 32, "unit": "%"}, {"measurement": "residual activity", "setting": "TBK1 (human); compound 1.0 µM", "result": 54, "unit": "%"}, {"measurement": "residual activity", "setting": "TBK1 (human); compound 10.0 µM", "result": 64, "unit": "%"}, {"measurement": "residual activity", "setting": "IKBKB (human); compound 1.0 µM", "result": 100, "unit": "%"}, {"measurement": "residual activity", "setting": "IKBKB (human); compound 10.0 µM", "result": 16, "unit": "%"}, {"measurement": "residual activity", "setting": "GCK (human); compound 1.0 µM", "result": 93, "unit": "%"}, {"measurement": "residual activity", "setting": "GCK (human); compound 10.0 µM", "result": 23, "unit": "%"}, {"measurement": "residual activity", "setting": "NEK6 (human); compound 1.0 µM", "result": 99, "unit": "%"}, {"measurement": "residual activity", "setting": "NEK6 (human); compound 10.0 µM", "result": 21, "unit": "%"}, {"measurement": "residual activity", "setting": "MARK3 (human); compound 1.0 µM", "result": 51, "unit": "%"}, {"measurement": "residual activity", "setting": "MARK3 (human); compound 10.0 µM", "result": 6, "unit": "%"}, {"measurement": "residual activity", "setting": "MAPK9 (human); compound 1.0 µM", "result": 106, "unit": "%"}, {"measurement": "residual activity", "setting": "MAPK9 (human); compound 10.0 µM", "result": 100, "unit": "%"}, {"measurement": "residual activity", "setting": "TTK (human); compound 1.0 µM", "result": 75, "unit": "%"}, {"measurement": "residual activity", "setting": "TTK (human); compound 10.0 µM", "result": 36, "unit": "%"}, {"measurement": "residual activity", "setting": "PKN2 (human); compound 1.0 µM", "result": 106, "unit": "%"}, {"measurement": "residual activity", "setting": "PKN2 (human); compound 10.0 µM", "result": 102, "unit": "%"}, {"measurement": "residual activity", "setting": "[2]; compound 1.0 µM", "result": 104, "unit": "%"}, {"measurement": "residual activity", "setting": "[2]; compound 10.0 µM", "result": 14, "unit": "%"}, {"measurement": "residual activity", "setting": "DAPK1 (human)", "result": 95, "unit": "%"}, {"measurement": "residual activity", "setting": "MARK4 (human); compound 1.0 µM", "result": 34, "unit": "%"}, {"measurement": "residual activity", "setting": "MARK4 (human); compound 10.0 µM", "result": 20, "unit": "%"}, {"measurement": "residual activity", "setting": "PIM1 (human); compound 1.0 µM", "result": 37, "unit": "%"}, {"measurement": "residual activity", "setting": "PIM1 (human); compound 10.0 µM", "result": 7, "unit": "%"}, {"measurement": "residual activity", "setting": "CSNK2A1 (human); compound 1.0 µM", "result": 46, "unit": "%"}, {"measurement": "residual activity", "setting": "CSNK2A1 (human); compound 10.0 µM", "result": 7, "unit": "%"}, {"measurement": "residual activity", "setting": "BTK (human); compound 1.0 µM", "result": 61, "unit": "%"}, {"measurement": "residual activity", "setting": "BTK (human); compound 10.0 µM", "result": 32, "unit": "%"}, {"measurement": "residual activity", "setting": "EPHB1 (human)", "result": 85, "unit": "%"}, {"measurement": "residual activity", "setting": "STK3 (human); compound 1.0 µM", "result": 58, "unit": "%"}, {"measurement": "residual activity", "setting": "STK3 (human); compound 10.0 µM", "result": 9, "unit": "%"}, {"measurement": "residual activity", "setting": "EEF2K (human); compound 1.0 µM", "result": 110, "unit": "%"}, {"measurement": "residual activity", "setting": "EEF2K (human); compound 10.0 µM", "result": 109, "unit": "%"}, {"measurement": "residual activity", "setting": "MAP2K1 (human); compound 1.0 µM", "result": 84, "unit": "%"}, {"measurement": "residual activity", "setting": "MAP2K1 (human); compound 10.0 µM", "result": 24, "unit": "%"}, {"measurement": "residual activity", "setting": "MYLK (human); compound 1.0 µM", "result": 87, "unit": "%"}, {"measurement": "residual activity", "setting": "MYLK (human); compound 10.0 µM", "result": 23, "unit": "%"}, {"measurement": "residual activity", "setting": "MAP3K5 (human)", "result": 118, "unit": "%"}, {"measurement": "residual activity", "setting": "PIM3 (human); compound 1.0 µM", "result": 34, "unit": "%"}, {"measurement": "residual activity", "setting": "PIM3 (human); compound 10.0 µM", "result": 0, "unit": "%"}]}
